# Patent US20240158446A1, “CYCLIC COMPOUND HAVING SELECTIVE INHIBITORY ACTION ON KRAS OVER HRAS AND NRAS” (CHUGAI SEIYAKU KABUSHIKI KAISHA, priority 2021, published 2024)
# How the values were obtained:
# [1] = target: GDP-bound NRAS wild-type protein (Homo sapiens, UniProt P01111); assay: Binding to NRAS by surface plasmon resonance (SPR), Single Cycle Kinetics; conditions: SPR, GDP-bound NRAS wild-type protein vs GDP-bound KRAS wild-type protein
# [2] = target: GDP-bound HRAS wild-type protein (Homo sapiens, UniProt P01112); assay: Binding to HRAS by surface plasmon resonance (SPR), Single Cycle Kinetics; conditions: SPR, GDP-bound HRAS wild-type protein vs GDP-bound KRAS wild-type protein
# Sequence of GDP-bound HRAS wild-type protein (P01112 whole entry): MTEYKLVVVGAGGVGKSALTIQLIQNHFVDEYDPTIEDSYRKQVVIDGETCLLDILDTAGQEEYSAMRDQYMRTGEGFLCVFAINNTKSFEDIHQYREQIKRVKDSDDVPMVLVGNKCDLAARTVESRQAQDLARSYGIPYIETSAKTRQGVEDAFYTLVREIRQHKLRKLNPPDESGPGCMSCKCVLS
# [3] = target: GDP-bound KRAS wild-type protein (Homo sapiens, UniProt P01116); assay: Binding to KRAS by surface plasmon resonance (SPR), Single Cycle Kinetics; conditions: SPR, Single Cycle Kinetics, GDP-bound KRAS wild-type protein; read-out: KRAS KD
# Sequence of GDP-bound KRAS wild-type protein (P01116 whole entry): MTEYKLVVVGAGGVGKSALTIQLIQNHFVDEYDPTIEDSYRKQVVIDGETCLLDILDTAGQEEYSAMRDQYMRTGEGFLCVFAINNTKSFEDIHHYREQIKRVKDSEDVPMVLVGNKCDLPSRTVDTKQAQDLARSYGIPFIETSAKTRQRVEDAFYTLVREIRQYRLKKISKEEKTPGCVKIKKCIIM
# Sequence of GDP-bound NRAS wild-type protein (P01111 whole entry): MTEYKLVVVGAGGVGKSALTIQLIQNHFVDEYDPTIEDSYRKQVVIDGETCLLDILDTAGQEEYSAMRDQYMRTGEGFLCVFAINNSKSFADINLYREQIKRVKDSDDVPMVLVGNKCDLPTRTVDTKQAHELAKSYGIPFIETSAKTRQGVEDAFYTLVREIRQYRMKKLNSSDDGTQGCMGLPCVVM
Compound,NRAS/KRAS (ratio of KD value for NRAS to KD value for KRAS) [1],HRAS/KRAS (ratio of KD value for HRAS to KD value for KRAS) [2],Kd [3] [pM]
CC[C@H](C)[C@@H]1NC(=O)[C@H](C2CC2)N(C)C(=O)C[C@@H](C(=O)N(C)CC)N(C)C(=O)[C@H](C2CCCC2)N(C)C(=O)C2(CCC2)NC(=O)[C@@H]2C[C@H](C)CN2C(=O)[C@H](CCc2ccc(C(F)(F)F)c(OC)c2)NC(=O)CN(C)C(=O)[C@H](Cc2ccc(C(F)(F)F)cc2)N2CC/C=C\C[C@@H](C2=O)N(C)C(=O)CN(C)C1=O [PP2069],AA (a compound having 20 or more is denoted as AA),A (a compound having 10 or more and less than 20 is denoted as A),82
CCCN(C)C(=O)[C@@H]1CC(=O)N(C)[C@@H](C2CC2)C(=O)N[C@@H]([C@@H](C)CC)C(=O)N(C)CC(=O)N(C)[C@H]2C/C=C\CCN(C2=O)[C@@H](Cc2ccc(C(F)(F)F)cc2)C(=O)N(C)CC(=O)N[C@@H](CCc2ccc(C(F)(F)F)c(OC)c2)C(=O)N2C[C@@H](C)C[C@H]2C(=O)NC2(CCC2)C(=O)N(C)[C@@H](C2CCCC2)C(=O)N1C [PP2070],A (a compound having 10 or more and less than 20 is denoted as A),A (a compound having 10 or more and less than 20 is denoted as A),110
CC[C@H](C)[C@@H]1NC(=O)[C@H](C2CCC2)N(C)C(=O)C[C@@H](C(=O)N(C)CC)N(C)C(=O)[C@H](C2CCCC2)N(C)C(=O)C2(CCC2)NC(=O)[C@@H]2C[C@H](C)CN2C(=O)[C@H](CCc2ccc(C(F)(F)F)c(OC)c2)NC(=O)CN(C)C(=O)[C@H](Cc2ccc(C(F)(F)F)cc2)N2CC/C=C\C[C@@H](C2=O)N(C)C(=O)CN(C)C1=O [PP2071],A (a compound having 10 or more and less than 20 is denoted as A),A (a compound having 10 or more and less than 20 is denoted as A),100
CCCN(C)C(=O)[C@@H]1CC(=O)N(C)[C@@H](C2CCC2)C(=O)N[C@@H]([C@@H](C)CC)C(=O)N(C)CC(=O)N(C)[C@H]2C/C=C\CCN(C2=O)[C@@H](Cc2ccc(C(F)(F)F)cc2)C(=O)N(C)CC(=O)N[C@@H](CCc2ccc(C(F)(F)F)c(OC)c2)C(=O)N2C[C@@H](C)C[C@H]2C(=O)NC2(CCC2)C(=O)N(C)[C@@H](C2CCCC2)C(=O)N1C [PP2072],A (a compound having 10 or more and less than 20 is denoted as A),A (a compound having 10 or more and less than 20 is denoted as A),120
C#CC[C@H]1C(=O)N[C@@H]([C@@H](C)CC)C(=O)N(C)CC(=O)N(C)[C@H]2C/C=C\CCN(C2=O)[C@@H](Cc2ccc(C(F)(F)F)cc2)C(=O)N(C)CC(=O)N[C@@H](CCc2cc(F)c(C(F)(F)F)c(F)c2)C(=O)N2C[C@H](OCC)C[C@H]2C(=O)NC2(CC(C)(C)C2)C(=O)N(C)[C@@H](C2CCCC2)C(=O)N(C)[C@H](C(=O)N(C)CC)CC(=O)N1C [PP2073],A (a compound having 10 or more and less than 20 is denoted as A),A (a compound having 10 or more and less than 20 is denoted as A),78
C#CC[C@H]1C(=O)N[C@@H]([C@@H](C)CC)C(=O)N(C)CC(=O)N(C)[C@H]2C/C=C\CCN(C2=O)[C@@H](Cc2ccc(C(F)(F)F)cc2)C(=O)N(C)CC(=O)N[C@@H](CCc2cc(F)c(C(F)(F)F)c(F)c2)C(=O)N2C[C@H](OCC)C[C@H]2C(=O)NC2(CC(C)(C)C2)C(=O)N(C)[C@@H](C2CCCC2)C(=O)N(C)[C@H](C(=O)N(C)CCC)CC(=O)N1C [PP2074],A (a compound having 10 or more and less than 20 is denoted as A),A (a compound having 10 or more and less than 20 is denoted as A),110
C#CC[C@H]1C(=O)N[C@@H]([C@@H](C)CC)C(=O)N(C)CC(=O)N(C)[C@H]2C/C=C\CCN(C2=O)[C@@H](Cc2ccc(C(F)(F)F)cc2)C(=O)N(C)CC(=O)N[C@@H](CCc2cc(F)c(C(F)(F)F)c(F)c2)C(=O)N2C[C@@H](C)C[C@H]2C(=O)NC2(CC(C)(C)C2)C(=O)N(C)[C@@H](C2CCCC2)C(=O)N(C)[C@H](C(=O)N(C)CC)CC(=O)N1C [PP2075],A (a compound having 10 or more and less than 20 is denoted as A),A (a compound having 10 or more and less than 20 is denoted as A),220
C#CC[C@H]1C(=O)N[C@@H]([C@@H](C)CC)C(=O)N(C)CC(=O)N(C)[C@H]2C/C=C\CCN(C2=O)[C@@H](Cc2ccc(C(F)(F)F)cc2)C(=O)N(C)CC(=O)N[C@@H](CCc2cc(F)c(C(F)(F)F)c(F)c2)C(=O)N2C[C@@H](C)C[C@H]2C(=O)NC2(CC(C)(C)C2)C(=O)N(C)[C@@H](C2CCCC2)C(=O)N(C)[C@H](C(=O)N(C)CCC)CC(=O)N1C [PP2076],A (a compound having 10 or more and less than 20 is denoted as A),A (a compound having 10 or more and less than 20 is denoted as A),390
CCCN(C)C(=O)[C@@H]1CC(=O)N(C)[C@@H](C(C)C)C(=O)N[C@@H]([C@@H](C)CC)C(=O)N(C)CC(=O)N(C)[C@H]2C/C=C\CCN(C2=O)[C@@H](Cc2ccc(C(F)(F)F)cc2)C(=O)N(C)CC(=O)N[C@@H](CCc2cc(F)c(C(F)(F)F)c(F)c2)C(=O)N2C[C@@H](C)C[C@H]2C(=O)NC2(CCC2)C(=O)N(C)[C@@H](C2CCCC2)C(=O)N1C [PP2079],A (a compound having 10 or more and less than 20 is denoted as A),A (a compound having 10 or more and less than 20 is denoted as A),290
CC[C@H](C)[C@@H]1NC(=O)[C@H](C2CC2)N(C)C(=O)C[C@@H](C(=O)N(C)CC)N(C)C(=O)[C@H](C2CCCC2)N(C)C(=O)C2(CCC2)NC(=O)[C@@H]2C[C@H](C)CN2C(=O)[C@H](CCc2cc(F)c(C(F)(F)F)c(F)c2)NC(=O)CN(C)C(=O)[C@H](Cc2ccc(C(F)(F)F)cc2)N2CC/C=C\C[C@@H](C2=O)N(C)C(=O)CN(C)C1=O [PP2080],A (a compound having 10 or more and less than 20 is denoted as A),A (a compound having 10 or more and less than 20 is denoted as A),93
CCCN(C)C(=O)[C@@H]1CC(=O)N(C)[C@@H](C2CC2)C(=O)N[C@@H]([C@@H](C)CC)C(=O)N(C)CC(=O)N(C)[C@H]2C/C=C\CCN(C2=O)[C@@H](Cc2ccc(C(F)(F)F)cc2)C(=O)N(C)CC(=O)N[C@@H](CCc2cc(F)c(C(F)(F)F)c(F)c2)C(=O)N2C[C@@H](C)C[C@H]2C(=O)NC2(CCC2)C(=O)N(C)[C@@H](C2CCCC2)C(=O)N1C [PP2081],A (a compound having 10 or more and less than 20 is denoted as A),A (a compound having 10 or more and less than 20 is denoted as A),120
CCCN(C)C(=O)[C@@H]1CC(=O)N(C)[C@@H](C2CCC2)C(=O)N[C@@H]([C@@H](C)CC)C(=O)N(C)CC(=O)N(C)[C@H]2C/C=C\CCN(C2=O)[C@@H](Cc2ccc(C(F)(F)F)cc2)C(=O)N(C)CC(=O)N[C@@H](CCc2cc(F)c(C(F)(F)F)c(F)c2)C(=O)N2C[C@@H](C)C[C@H]2C(=O)NC2(CCC2)C(=O)N(C)[C@@H](C2CCCC2)C(=O)N1C [PP2083],A (a compound having 10 or more and less than 20 is denoted as A),B (a compound having 3 or more and less than 10 is denoted as B),220
C#CCN1CC(=O)N(C)[C@H]2C/C=C\CCN(C2=O)[C@@H](Cc2ccc(C(F)(F)F)cc2)C(=O)N(C)CC(=O)N[C@@H](CCc2cc(F)c(C(F)(F)F)c(F)c2)C(=O)N2C[C@H](OCC)C[C@H]2C(=O)NC2(CC(C)(C)C2)C(=O)N(C)[C@@H](C2CCCC2)C(=O)N(C)[C@H](C(=O)N(C)C)CC(=O)N(C)[C@@H](CC)C(=O)N[C@@H]([C@@H](C)CC)C1=O [PP2087],A (a compound having 10 or more and less than 20 is denoted as A),A (a compound having 10 or more and less than 20 is denoted as A),150
"CCC[C@H]1C(=O)N[C@@H]([C@@H](C)CC)C(=O)N(C2CC2)CC(=O)N(C)[C@H]2C/C=C\CCN(C2=O)[C@@H](Cc2ccc(C)cc2)C(=O)N(C)CC(=O)N[C@@H](CCc2cc(F)c(C(F)(F)F)c(F)c2)C(=O)N2C[C@H](OCC)C[C@H]2C(=O)NC2(CC(C)(C)C2)C(=O)N(C)[C@@H](C2CCCC2)C(=O)N(C)[C@H](C(=O)N(C)C)CC(=O)N1C [PP2093, (2S,8S,12R,14S,20S,23S,27S,30S,36S,38Z)-20-cyclopentyl-32-cyclopropyl-8-[2-[3,5-difluoro-4-(trifluoromethyl)phenyl]ethyl]-12-ethoxy-N,N,3′,3′,4,19,22,26,35-nonamethyl-30-[(1S)-1-methylpropyl]-3,6,9,15,18,21,25,28,31,34,42-undecaoxo-27-propyl-2-(p-tolylmethyl)spiro[1,4,7,10,16,19,22,26,29,32,35-undecazatricyclo[34.5.1.0^10,14]dotetracont-38-ene-17,1′-cyclobutane]-23-carboxamide]",A (a compound having 10 or more and less than 20 is denoted as A),A (a compound having 10 or more and less than 20 is denoted as A),330
C=CCN1CC(=O)N(C)[C@H]2C/C=C\CCN(C2=O)[C@@H](Cc2ccc(C)cc2)C(=O)N(C)CC(=O)N[C@@H](CCc2cc(F)c(C(F)(F)F)c(F)c2)C(=O)N2C[C@H](OCC)C[C@H]2C(=O)NC2(CC(C)(C)C2)C(=O)N(C)[C@@H](C2CCCC2)C(=O)N(C)[C@H](C(=O)N(C)C)CC(=O)N(C)[C@@H](CCC)C(=O)N[C@@H]([C@@H](C)CC)C1=O [PP2094],A (a compound having 10 or more and less than 20 is denoted as A),A (a compound having 10 or more and less than 20 is denoted as A),290
